Results taken from patent US20240358692A1, “TREATMENT OF SCLERODERMA” (Aisa Pharma, Inc., priority 2023, published 2024).

System: participants with SSc-RP
Test: SHAQ - Visual Analog Scale - Intestinal Problems
Assay type: in vivo, human
Parameters: Visual Analog Scale-Intestinal Problems, In Clinic Visit (Day 12), Mean / Visual Analog Scale-Intestinal Problems, In Clinic Visit (Day 12), Median / Visual Analog Scale-Intestinal Problems, Change from Baseline, Mean / Visual Analog Scale-Intestinal Problems, Change from Baseline, Median / SHAQ Visual Analogue Scale - Intestinal Problems, In-Clinic Visit (Day 12), Median: scale not given here
Description: The standard, validated, patient reported outcome measures tool for SSc patients, the Scleroderma Health Assessment Questionnaire (SHAQ), will be used to assess the participant qualify of life. Details are attached in the Appendix. The participant quality of life will be scored, and a disability index calculated for each questionnaire completed by the patient at Screening and each in-clinic visit. The absolute change in participant quality of life from baseline to the end of each dosing period will be calculated similar to frequency data as before.
The standard, validated, patient reported outcome measures tool for SSc patients, the SHAQ, was collected at the time points specified in the study schedules (FIG. 2 and FIGS. 4A and 4B) to assess the participant's quality of life. The SHAQ included a Raynaud's VAS that will also be reported separately.

[1] = Modified ITT Population-Part A, dose cilnidipine 10 mg, tadalafil 5 mg, alone or combined as labelled
[2] = Pooled Cilnidipine (N = 8), Day 12, PP Population, Part A
[3] = pooled Cilnidipine 10 mg and Cilnidipine 10 mg + Tadalafil 5 mg
[4] = pooled Cilnidipine 20 mg and Cilnidipine 20 mg + Tadalafil 5 mg
[5] = pooled cilnidipine 10 mg and 20 mg arms (combination: + tadalafil 5 mg)

COCCOC(=O)C1=C(C)NC(C)=C(C(=O)OC/C=C/c2ccccc2)C1c1cccc([N+](=O)[O-])c1 (stereo not shown) [Cilnidipine]
Visual Analog Scale-Intestinal Problems, Percent Change from Baseline, Median (Modified ITT Population-Part A, Day 12, dose cilnidipine 20 mg, tadalafil 5 mg, alone or combined as labelled): 35.00% | Visual Analog Scale-Intestinal Problems, In Clinic Visit (Day 12), Mean [1]: 1.100 | Visual Analog Scale-Intestinal Problems, In Clinic Visit (Day 12), Median [1]: 0.300 | Visual Analog Scale-Intestinal Problems, In Clinic Visit (Day 12), Median (Modified ITT Population-Part A, dose cilnidipine 20 mg, tadalafil 5 mg, alone or combined as labelled): 1.300 | SHAQ Visual Analogue Scale - Intestinal Problems, In-Clinic Visit (Day 12), Median (Pooled Cilnidipine 10 mg and Cilnidipine 10 mg + Tadalafil 5 mg (N = 9), Day 12, PP Population, Part A): 0.700 | SHAQ Visual Analogue Scale - Intestinal Problems, In-Clinic Visit (Day 12), Median (Pooled Cilnidipine 20 mg and Cilnidipine 20 mg + Tadalafil 5 mg (N = 8), Day 12, PP Population, Part A): 0.100 | SHAQ Visual Analogue Scale - Intestinal Problems, Change from Baseline, Mean (SD) [2]: −0.863 (1.8110) | SHAQ Visual Analogue Scale - Intestinal Problems, In-Clinic Visit (Day 12), Mean (SD) [2]: 0.975 (1.3781) | SHAQ Visual Analogue Scale - Intestinal Problems, Percent Change from Baseline, Mean (SD) [2]: −43.69 (64.404) % | % Δ from baseline, Intestinal Problems mean (Pooled cilnidipine (n=5)): −32.4% | VAS Intestinal Problems Change from Baseline Max [3]: 1.00 | VAS Intestinal Problems Change from Baseline Mean [3]: −1.228 | VAS Intestinal Problems Change from Baseline Median [3]: −0.250 | VAS Intestinal Problems Change from Baseline Min [3]: −4.40, | VAS Intestinal Problems Change from Baseline Q1 [3]: −3.000, | VAS Intestinal Problems Change from Baseline Q3 [3]: 0.000 | VAS Intestinal Problems Day 12 Max [3]: 3.80 | VAS Intestinal Problems Day 12 Median [3]: 0.700 | VAS Intestinal Problems Day 12 Min [3]: 0.00, | VAS Intestinal Problems Day 12 Q1 [3]: 0.000, | VAS Intestinal Problems Day 12 Q3 [3]: 1.900 | VAS Intestinal Problems Percent Change from Baseline Max [3]: 142.9% | VAS Intestinal Problems Percent Change from Baseline Mean [3]: −27.93% | VAS Intestinal Problems Percent Change from Baseline Min [3]: −100.0, % | VAS Intestinal Problems Percent Change from Baseline Q1 [3]: −94.00, % | VAS Intestinal Problems Percent Change from Baseline Q3 [3]: 15.00% | VAS Intestinal Problems Change from Baseline Max [4]: 2.90 | VAS Intestinal Problems Change from Baseline Median [4]: 0.000 | VAS Intestinal Problems Change from Baseline Min [4]: −1.60, | VAS Intestinal Problems Change from Baseline Q1 [4]: −0.300, | VAS Intestinal Problems Change from Baseline Q3 [4]: 0.600 | VAS Intestinal Problems Day 12 Max [4]: 4.50 | VAS Intestinal Problems Day 12 Median [4]: 0.200 | VAS Intestinal Problems Day 12 Min [4]: 0.00, | VAS Intestinal Problems Day 12 Q1 [4]: 0.000, | VAS Intestinal Problems Day 12 Q3 [4]: 2.100 | VAS Intestinal Problems Percent Change from Baseline Max [4]: 181.3% | VAS Intestinal Problems Percent Change from Baseline Median [4]: 30.00% | VAS Intestinal Problems Percent Change from Baseline Min [4]: −100.0, % | VAS Intestinal Problems Percent Change from Baseline Q1 [4]: −88.89, % | VAS Intestinal Problems Percent Change from Baseline Q3 [4]: 40.00% | VAS Intestinal Problems Change from Baseline Max [5]: 0.60 | VAS Intestinal Problems Change from Baseline Median [5]: 0.000 | VAS Intestinal Problems Change from Baseline Min [5]: −4.40, | VAS Intestinal Problems Change from Baseline Q1 [5]: −3.000, | VAS Intestinal Problems Change from Baseline Q3 [5]: 0.300 | VAS Intestinal Problems Day 12 Max [5]: 3.80 | VAS Intestinal Problems Day 12 Median [5]: 0.600 | VAS Intestinal Problems Day 12 Min [5]: 0.00, | VAS Intestinal Problems Day 12 Q1 [5]: 0.000, | VAS Intestinal Problems Day 12 Q3 [5]: 2.100 | VAS Intestinal Problems Percent Change from Baseline Max [5]: 40.0% | VAS Intestinal Problems Percent Change from Baseline Min [5]: −100.0, % | VAS Intestinal Problems Percent Change from Baseline Q1 [5]: −88.00, % | VAS Intestinal Problems Percent Change from Baseline Q3 [5]: 30.00%
